22 compounds from patent US9834558B2, “Substituted bridged urea analogs as sirtuin modulators” (GLAXOSMITHKLINE LLC, priority 2013, dated 2017) can be followed below.

Bounds are passed on as bounds.

This experiment deals with T1, SIRT1 (Homo sapiens, UniProt Q96EB6).
T1 sequence (Q96EB6 1-747): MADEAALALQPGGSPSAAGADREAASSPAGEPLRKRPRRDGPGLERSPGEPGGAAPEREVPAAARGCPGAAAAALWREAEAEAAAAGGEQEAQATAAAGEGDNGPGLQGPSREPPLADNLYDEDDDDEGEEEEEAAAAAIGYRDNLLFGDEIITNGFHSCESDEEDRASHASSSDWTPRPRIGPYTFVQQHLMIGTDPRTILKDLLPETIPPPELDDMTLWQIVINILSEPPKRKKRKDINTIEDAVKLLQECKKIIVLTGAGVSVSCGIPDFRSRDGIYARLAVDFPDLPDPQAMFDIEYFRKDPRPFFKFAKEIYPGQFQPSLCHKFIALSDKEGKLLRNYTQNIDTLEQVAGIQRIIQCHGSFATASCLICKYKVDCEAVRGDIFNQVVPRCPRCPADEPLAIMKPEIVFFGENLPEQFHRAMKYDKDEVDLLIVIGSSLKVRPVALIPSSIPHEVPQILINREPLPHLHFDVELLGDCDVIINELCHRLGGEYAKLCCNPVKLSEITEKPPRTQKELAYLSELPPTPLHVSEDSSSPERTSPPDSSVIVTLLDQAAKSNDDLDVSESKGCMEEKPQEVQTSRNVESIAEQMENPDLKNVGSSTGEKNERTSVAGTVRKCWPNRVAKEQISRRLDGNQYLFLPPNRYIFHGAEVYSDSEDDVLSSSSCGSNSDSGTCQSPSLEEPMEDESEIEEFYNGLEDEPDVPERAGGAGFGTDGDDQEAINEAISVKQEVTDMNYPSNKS
Put plainly: Trp mass spectrometry assay of SIRT1 activation. In kind it is biochemical. The settings on record: Trp peptide assay; for TRP Activity (EC1.5): EC1.5 = concentration that results in 150% activation of SIRT1; for Emax: maximum activity relative to control (100%), read-out: TRP MAX RESP (percent maximum fold activation). In a few lines: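 Activation read-out: mass-spec measurement of O-acetyl-ADP-ribose or deacetylated Trp peptide versus compound-free controls, giving EC1.5 and Percent Maximum Activation. Reactions ran 25 min at 25 °C, pH 7.5, with 120 μM βNAD+, 0.5 μM acetylated p53-derived peptide and 10 nM His-tagged SIRT1.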

Regarding `O=C(Nc1cnccn1)N1c2nc(-c3ccnc(C(F)(F)F)n3)ccc2N2CC[C@H]1C2` [(9S)-N-(pyrazin-2-yl)-5-[2-(trifluoromethyl)pyrimidin-4-yl]-1,6,8-triazatricyclo[7.2.1.0 {2,7}]dodeca-2(7),3,5-triene-8-carboxamide], the “TRP Activity (EC1.5)” value is on record as “B (B (EC1.5 1-25 μM))” and the Emax is over 150%.

Turning to `O=C(Nc1cnccn1)N1c2nc(N3CCC(C(F)(F)F)CC3)ccc2N2CC[C@H]1C2` [(9S)-N-(pyrazin-2-yl)-5-[4-(trifluoromethyl)piperidin-1-yl]-1,6,8-triazatricyclo[7.2.1.0 {2,7}]dodeca-2(7),3,5-triene-8-carboxamide], the “TRP Activity (EC1.5)” value was “A (A (EC1.5<1 μM))” and the Emax is over 150%.

In the case of `O=C(Nc1cnccn1)N1c2nc(-c3ccc(C(F)(F)F)nc3)ccc2N2CC[C@H]1C2` [(9S)-N-(pyrazin-2-yl)-5-[6-(trifluoromethyl)pyridin-3-yl]-1,6,8-triazatricyclo[7.2.1.0 {2,7}]dodeca-2(7),3,5-triene-8-carboxamide], the “TRP Activity (EC1.5)” value is reported as “B (B (EC1.5 1-25 μM))” and the Emax is over 150%.

Turning to `O=C(Nc1cnccn1)N1c2nc(N3CCC[C@H](C(F)(F)F)C3)ccc2N2CCC[C@H]1C2` [(9S)-N-(pyrazin-2-yl)-5-[(3S)-3-(trifluoromethyl)piperidin-1-yl]-1,6,8-triazatricyclo[7.3.1.0 {2,7}]trideca-2(7),3,5-triene-8-carboxamide], the “TRP Activity (EC1.5)” value is listed as “A (A (EC1.5<1 μM))” and the Emax is over 150%.

For the compound `O=C(Nc1cccnn1)N1c2nc(-c3ccnc(C(F)(F)F)c3)ccc2N2CCC[C@H]1C2` [(9S)-N-(pyridazin-3-yl)-5-[2-(trifluoromethyl)pyridin-4-yl]-1,6,8-triazatricyclo[7.3.1.0 {2,7}]trideca-2(7),3,5-triene-8-carboxamide], the “TRP Activity (EC1.5)” value is “A (A (EC1.5<1 μM))” and the Emax is over 150%.

Take `O=C(Nc1ccccn1)N1c2nc(N3CCOC(C(F)(F)F)C3)ccc2N2CC[C@H]1C2` (stereo partly drawn) [(9S)-N-(pyridin-2-yl)-5-[2-(trifluoromethyl)morpholin-4-yl]-1,6,8-triazatricyclo[7.2.1.0 {2,7}]dodeca-2(7),3,5-triene-8-carboxamide]: the “TRP Activity (EC1.5)” value was “B (B (EC1.5 1-25 μM))” and the Emax is over 150%.

Take `O=C(Nc1ccccn1)N1c2nc(-c3ccnc(C(F)(F)F)c3)ccc2N2CCC[C@H]1C2` [(9S)-N-(pyridin-2-yl)-5-[2-(trifluoromethyl)pyridin-4-yl]-1,6,8-triazatricyclo[7.3.1.0 {2,7}]trideca-2(7),3,5-triene-8-carboxamide]: the “TRP Activity (EC1.5)” value is on record as “A (A (EC1.5<1 μM))” and the Emax was over 150%.

In the case of `O=C(Nc1ccccn1)N1c2nc(N3CCC(C(F)(F)F)CC3)ccc2N2CC[C@H]1C2` [(9S)-N-(pyridin-2-yl)-5-[4-(trifluoromethyl)piperidin-1-yl]-1,6,8-triazatricyclo[7.2.1.0 {2,7}]dodeca-2,4,6-triene-8-carboxamide], the “TRP Activity (EC1.5)” value is “A (A (EC1.5<1 μM))” and the Emax is over 150%.

Take `O=C(Nc1ccccn1)N1c2nc(N3CCC[C@@H]3C(F)(F)F)ccc2N2CC[C@H]1C2` [(9S)-N-(pyridin-2-yl)-5-[(2R)-2-(trifluoromethyl)pyrrolidin-1-yl]-1,6,8-triazatricyclo[7.2.1.0 {2,7}]dodeca-2(7),3,5-triene-8-carboxamide]: the “TRP Activity (EC1.5)” value was “A (A (EC1.5<1 μM))” and the Emax was over 150%.

On to `O=C(Nc1ccccn1)N1c2nc(N3CCC[C@@H]3C(F)(F)F)ccc2N2CCC[C@H]1C2` [(9S)-N-(pyridin-2-yl)-5-[(2R)-2-(trifluoromethyl)pyrrolidin-1-yl]-1,6,8-triazatricyclo[7.3.1.0 {2,7}]trideca-2(7),3,5-triene-8-carboxamide], for which the “TRP Activity (EC1.5)” value was “A (A (EC1.5<1 μM))” and the Emax was over 150%.

With `O=C(Nc1ccccn1)N1c2nc(N3CCC[C@H]3C(F)(F)F)ccc2N2CC[C@H]1C2` [(9S)-N-(pyridin-2-yl)-5-[(2S)-2-(trifluoromethyl)pyrrolidin-1-yl]-1,6,8-triazatricyclo[7.2.1.0 {2,7}]dodeca-2(7),3,5-triene-8-carboxamide], the “TRP Activity (EC1.5)” value is given as “B (B (EC1.5 1-25 μM))” and the Emax is over 150%.

Consider `O=C(Nc1ccccn1)N1c2nc(N3CCC[C@H]3C(F)(F)F)ccc2N2CCC[C@H]1C2` [(9S)-N-(pyridin-2-yl)-5-[(2S)-2-(trifluoromethyl)pyrrolidin-1-yl]-1,6,8-triazatricyclo[7.3.1.0 {2,7}]trideca-2(7),3,5-triene-8-carboxamide], for which the “TRP Activity (EC1.5)” value is “B (B (EC1.5 1-25 μM))” and the Emax is over 150%.

For the compound `O=C(Nc1ccccn1)N1c2nc(N3CCC[C@@H](C(F)(F)F)C3)ccc2N2CC[C@H]1C2` [(9S)-N-(pyridin-2-yl)-5-[(3R)-3-(trifluoromethyl)piperidin-1-yl]-1,6,8-triazatricyclo[7.2.1.0 {2,7}]dodeca-2,4,6-triene-8-carboxamide], the “TRP Activity (EC1.5)” value is reported as “B (B (EC1.5 1-25 μM))” and the Emax was over 150%.

`O=C(Nc1ccccn1)N1c2nc(N3CC[C@@H](C(F)(F)F)C3)ccc2N2CC[C@H]1C2` [(9S)-N-(pyridin-2-yl)-5-[(3R)-3-(trifluoromethyl)pyrrolidin-1-yl]-1,6,8-triazatricyclo[7.2.1.0^2,7]dodeca-2,4,6-triene-8-carboxamide]: the “TRP Activity (EC1.5)” value is on record as “A (A (EC1.5<1 μM))” and the Emax is over 150%.

Turning to `O=C(Nc1ccccn1)N1c2nc(N3CCC[C@H](C(F)(F)F)C3)ccc2N2CC[C@H]1C2` [(9S)-N-(pyridin-2-yl)-5-[(3S)-3-(trifluoromethyl)piperidin-1-yl]-1,6,8-triazatricyclo[7.2.1.0 {2,7}]dodeca-2,4,6-triene-8-carboxamide], the “TRP Activity (EC1.5)” value is “B (B (EC1.5 1-25 μM))” and the Emax is over 150%.

As for `O=C(Nc1ccccn1)N1c2nc(N3CCC(C(F)(F)F)C3)ccc2N2CC[C@H]1C2` (stereo partly drawn) [(9S)-N-(pyridin-2-yl)-5-[(3S)-3-(trifluoromethyl)pyrrolidin-1-yl]-1,6,8-triazatricyclo[7.2.1.0^{2,7}]dodeca-2(7),3,5-triene-8-carboxamide], the “TRP Activity (EC1.5)” value is “B (B (EC1.5 1-25 μM))” and the Emax is over 150%.

For the compound `O=C(Nc1cccnc1)N1c2nc(-c3ccc(C(F)(F)F)nc3)ccc2N2CC[C@H]1C2` [(9S)-N-(pyridin-3-yl)-5-[6-(trifluoromethyl)pyridin-3-yl]-1,6,8-triazatricyclo[7.2.1.0^{2,7}]dodeca-2(7),3,5-triene-8-carboxamide], the “TRP Activity (EC1.5)” value is recorded as “B (B (EC1.5 1-25 μM))” and the Emax was over 150%.

For the compound `O=C(Nc1cccnc1)N1c2nc(N3CCC[C@H](C(F)(F)F)C3)ccc2N2CCC[C@H]1C2` [(9S)-N-(pyridin-3-yl)-5-[(3S)-3-(trifluoromethyl)piperidin-1-yl]-1,6,8-triazatricyclo[7.3.1.0 {2,7}]trideca-2(7),3,5-triene-8-carboxamide], the “TRP Activity (EC1.5)” value is “A (A (EC1.5<1 μM))” and the Emax was over 150%.

For `O=C(Nc1ncccn1)N1c2nc(N3CCC[C@H](C(F)(F)F)C3)ccc2N2CCC[C@H]1C2` [(9S)-N-(pyrimidin-2-yl)-5-[(3S)-3-(trifluoromethyl)piperidin-1-yl]-1,6,8-triazatricyclo[7.3.1.0 {2,7}]trideca-2(7),3,5-triene-8-carboxamide], the “TRP Activity (EC1.5)” value was “A (A (EC1.5<1 μM))” and the Emax was over 150%.

For the compound `O=C(Nc1ccncn1)N1c2nc(-c3ccnc(C(F)(F)F)c3)ccc2N2CCC[C@H]1C2` [(9S)-N-(pyrimidin-4-yl)-5-[2-(trifluoromethyl)pyridin-4-yl]-1,6,8-triazatricyclo[7.3.1.0 {2,7}]trideca-2(7),3,5-triene-8-carboxamide], the “TRP Activity (EC1.5)” value is given as “A (A (EC1.5<1 μM))” and the Emax was over 150%.

On to `O=C(Nc1cncnc1)N1c2nc(-c3ccnc(C(F)(F)F)c3)ccc2N2CCC[C@H]1C2` [(9S)-N-(pyrimidin-5-yl)-5-[2-(trifluoromethyl)pyridin-4-yl]-1,6,8-triazatricyclo[7.3.1.0 {2,7}]trideca-2(7),3,5-triene-8-carboxamide], for which the “TRP Activity (EC1.5)” value is “A (A (EC1.5<1 μM))” and the Emax was over 150%.

In the case of `O=C(Nc1cncnc1)N1c2nc(-c3cncc(C(F)(F)F)c3)ccc2N2CCC[C@H]1C2` [(9S)-N-(pyrimidin-5-yl)-5-[5-(trifluoromethyl)pyridin-3-yl]-1,6,8-triazatricyclo[7.3.1.0 {2,7}]trideca-2(7),3,5-triene-8-carboxamide], the “TRP Activity (EC1.5)” value is “A (A (EC1.5<1 μM))” and the Emax is over 150%.
